Source: PMC7187334 (Clinical Pharmacology in Drug Development, 2019)

Tests used:
[1] = target: organic anion‐transporting polypeptide 1B1 (OATP1B1) (Homo sapiens, UniProt Q9Y6L6); assay: OATP1B1 transporter inhibition in vitro; conditions: read-out: IC50, OATP1B1 inhibition, unpublished data
[2] = test system: leukotriene E4 levels in urine; conditions: healthy volunteers, first-in-human study; 95% CI 0.7-1.0 nM; read-out: IC50, reduction of endogenous leukotriene E4 levels in urine; cited from earlier work
[3] = test system: leukotriene B4 production; conditions: healthy volunteers, first-in-human study; 95% CI 4.8-5.8 nM; read-out: IC50, inhibition of leukotriene B4 production, whole-blood ex vivo stimulation assay; cited from earlier work
[4] = test system: healthy volunteers; assay: Phase 1 crossover study: safety and tolerability (adverse events); assay type: in vivo, human
Experimental: Each participant received 5 single‐dose oral study treatments (A‐E), with a minimum washout period of 7 days between each treatment period.
The safety set included all participants who received treatment in the study and for whom any postdose safety data were available. Safety was assessed throughout the study by monitoring adverse events, vital signs (systolic and diastolic blood pressure, pulse rate, and body temperature), and electrocardiographic parameters and by conducting physical examinations and laboratory assessments (hematology, blood chemistry, and urinalysis).

[5] = test system: CYP1A2; conditions: in vitro; read-out: IC50, CYP1A2 inhibition; cited from earlier work
[6] = test system: CYP2D6; conditions: in vitro; read-out: IC50, CYP2D6 inhibition; cited from earlier work
[7] = test system: CYP3A4; conditions: in vitro; read-out: IC50, CYP3A4 inhibition; cited from earlier work
[8] = test system: CYP3A4 and CYP3A5; conditions: in vitro; UGT 1A1, 1A3, 1A4 glucuronidation also contributes; cited from earlier work
[9] = test system: CYP2C9; conditions: in vitro; read-out: IC50, CYP2C9 inhibition; cited from earlier work
[10] = target: P‐glycoprotein (Homo sapiens, UniProt P08183); assay: P-glycoprotein inhibition in vitro; assay type: in vitro ADME
Sequence of P‐glycoprotein (P08183 whole entry): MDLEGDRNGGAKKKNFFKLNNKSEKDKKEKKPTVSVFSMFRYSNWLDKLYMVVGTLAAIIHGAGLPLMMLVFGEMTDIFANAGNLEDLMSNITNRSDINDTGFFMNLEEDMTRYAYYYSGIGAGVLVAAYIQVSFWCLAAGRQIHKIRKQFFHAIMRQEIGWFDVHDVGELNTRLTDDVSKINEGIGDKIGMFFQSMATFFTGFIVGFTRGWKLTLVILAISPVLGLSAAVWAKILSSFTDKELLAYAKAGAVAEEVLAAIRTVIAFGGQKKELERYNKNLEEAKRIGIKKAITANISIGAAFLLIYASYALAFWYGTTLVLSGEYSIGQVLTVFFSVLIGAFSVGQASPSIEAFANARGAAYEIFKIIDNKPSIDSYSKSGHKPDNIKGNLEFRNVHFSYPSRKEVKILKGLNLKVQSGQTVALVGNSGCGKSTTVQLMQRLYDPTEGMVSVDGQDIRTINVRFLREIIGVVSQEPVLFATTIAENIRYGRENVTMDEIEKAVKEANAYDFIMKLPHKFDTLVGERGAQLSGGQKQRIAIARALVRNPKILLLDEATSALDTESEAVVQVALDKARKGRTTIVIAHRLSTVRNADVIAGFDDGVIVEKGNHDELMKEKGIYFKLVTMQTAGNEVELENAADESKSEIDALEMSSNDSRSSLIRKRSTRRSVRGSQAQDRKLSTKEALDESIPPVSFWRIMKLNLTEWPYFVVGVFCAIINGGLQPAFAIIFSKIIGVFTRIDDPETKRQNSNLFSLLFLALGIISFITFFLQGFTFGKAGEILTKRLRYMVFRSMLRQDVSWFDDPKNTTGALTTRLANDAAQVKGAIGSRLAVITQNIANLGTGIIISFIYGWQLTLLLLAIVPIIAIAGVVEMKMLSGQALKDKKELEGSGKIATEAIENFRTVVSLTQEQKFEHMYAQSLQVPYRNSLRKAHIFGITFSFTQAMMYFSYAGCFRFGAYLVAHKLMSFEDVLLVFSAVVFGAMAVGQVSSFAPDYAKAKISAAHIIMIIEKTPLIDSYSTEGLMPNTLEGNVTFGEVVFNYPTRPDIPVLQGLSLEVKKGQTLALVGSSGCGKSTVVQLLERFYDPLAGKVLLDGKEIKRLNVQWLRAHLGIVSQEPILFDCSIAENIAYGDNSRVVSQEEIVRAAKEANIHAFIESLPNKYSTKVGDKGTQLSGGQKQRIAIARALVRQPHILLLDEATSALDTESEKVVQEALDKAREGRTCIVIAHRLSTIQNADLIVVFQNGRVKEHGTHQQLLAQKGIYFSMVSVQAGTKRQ

[11] = target: T1, breast cancer resistance protein (BCRP) (Homo sapiens, UniProt Q9UNQ0); assay: BCRP transporter inhibition in vitro; assay type: in vitro ADME; conditions: unpublished data
T1 sequence (Q9UNQ0 1-655): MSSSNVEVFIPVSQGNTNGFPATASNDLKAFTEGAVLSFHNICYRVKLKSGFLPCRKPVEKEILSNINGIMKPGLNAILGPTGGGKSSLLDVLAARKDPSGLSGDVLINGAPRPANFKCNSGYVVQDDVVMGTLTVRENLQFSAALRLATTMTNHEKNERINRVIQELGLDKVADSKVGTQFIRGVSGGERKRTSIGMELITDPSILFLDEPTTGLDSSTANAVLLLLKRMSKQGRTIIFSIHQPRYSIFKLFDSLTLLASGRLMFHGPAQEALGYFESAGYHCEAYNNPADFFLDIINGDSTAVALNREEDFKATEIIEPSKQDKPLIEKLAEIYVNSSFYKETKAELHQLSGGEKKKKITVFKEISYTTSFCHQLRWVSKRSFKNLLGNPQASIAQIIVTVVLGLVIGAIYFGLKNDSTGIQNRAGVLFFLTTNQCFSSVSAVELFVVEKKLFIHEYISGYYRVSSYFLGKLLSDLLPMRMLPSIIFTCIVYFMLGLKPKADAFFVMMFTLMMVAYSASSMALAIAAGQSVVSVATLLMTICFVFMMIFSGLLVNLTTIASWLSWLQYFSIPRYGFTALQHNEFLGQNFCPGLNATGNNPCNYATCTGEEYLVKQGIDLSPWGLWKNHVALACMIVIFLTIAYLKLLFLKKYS

Sequence of organic anion‐transporting polypeptide 1B1 (OATP1B1) (Q9Y6L6 whole entry): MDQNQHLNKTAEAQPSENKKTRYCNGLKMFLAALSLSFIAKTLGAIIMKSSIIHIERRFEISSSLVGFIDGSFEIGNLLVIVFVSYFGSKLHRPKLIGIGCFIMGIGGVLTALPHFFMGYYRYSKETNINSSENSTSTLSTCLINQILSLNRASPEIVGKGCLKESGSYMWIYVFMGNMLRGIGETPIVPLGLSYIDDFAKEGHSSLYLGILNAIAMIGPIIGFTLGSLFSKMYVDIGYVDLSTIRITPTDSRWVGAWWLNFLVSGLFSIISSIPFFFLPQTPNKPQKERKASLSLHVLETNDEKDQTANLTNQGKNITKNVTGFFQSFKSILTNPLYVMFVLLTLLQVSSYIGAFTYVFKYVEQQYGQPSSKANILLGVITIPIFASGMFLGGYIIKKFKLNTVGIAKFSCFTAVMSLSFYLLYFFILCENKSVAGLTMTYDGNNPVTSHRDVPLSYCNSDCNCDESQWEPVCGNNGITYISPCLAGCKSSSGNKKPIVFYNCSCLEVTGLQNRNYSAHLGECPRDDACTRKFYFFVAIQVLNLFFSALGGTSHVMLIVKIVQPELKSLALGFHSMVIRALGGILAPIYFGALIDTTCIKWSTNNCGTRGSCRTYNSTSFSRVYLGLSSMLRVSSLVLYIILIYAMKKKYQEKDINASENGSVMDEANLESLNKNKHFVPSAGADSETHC

SMILES: Cc1cc(-c2ccc(C(=O)[C@@H]3CCCC[C@H]3C(=O)Nc3cnn4c3C(=O)NCC4)cc2)n[nH]1 [AZD5718]
- IC50 [1]: 2.3 µM
- IC50 [2]: 0.0008 µM
- IC50 [3]: 0.0053 µM
- Deaths, serious adverse events, adverse events leading to discontinuation ([4]; all 5 treatment periods, 12 healthy men): No deaths, serious adverse events, or adverse events leading to discontinuation occurred
- Participants with any AE ([4]; human, in vivo): 6 (50.0) n (%)
- Participants with dry skin ([4]; human, in vivo): 1 (8.3) n (%)
- Participants with headache ([4]; human, in vivo): 2 (16.7) n (%)
- Participants with hot flush ([4]; human, in vivo): 1 (8.3) n (%)
- Participants with influenza-like illness ([4]; human, in vivo): 1 (8.3) n (%)
- Participants with musculoskeletal pain ([4]; human, in vivo): 1 (8.3) n (%)
- Participants with nasal congestion ([4]; human, in vivo): 1 (8.3) n (%)
- Participants with nasopharyngitis ([4]; human, in vivo): 1 (8.3) n (%)
- Participants with nausea ([4]; human, in vivo): 1 (8.3) n (%)
- Participants with oropharyngeal pain ([4]; human, in vivo): 1 (8.3) n (%)
- Participants with poor-quality sleep ([4]; human, in vivo): 1 (8.3) n (%)
- IC50 [5]: > 20 µM
- IC50 [6]: > 20 µM
- IC50 [7]: > 20 µM
- enzymes involved in metabolism [8]: cytochrome P450 (CYP) 3A4 and CYP3A5 are involved in the metabolism
- IC50 [9]: > 20 µM
- IC50 [10]: > 100 µM
- IC50 [11]: 20 µM
